{"source": "paper PMC6131539", "about": "“Behavioral Effects of a Potential Novel TAAR1 Antagonist” (Frontiers in Pharmacology, 2018)", "key": {"Dopamine Transporter": {"target": "Dopamine Transporter (Homo sapiens, UniProt Q01959)", "sequence (Q01959 whole entry)": "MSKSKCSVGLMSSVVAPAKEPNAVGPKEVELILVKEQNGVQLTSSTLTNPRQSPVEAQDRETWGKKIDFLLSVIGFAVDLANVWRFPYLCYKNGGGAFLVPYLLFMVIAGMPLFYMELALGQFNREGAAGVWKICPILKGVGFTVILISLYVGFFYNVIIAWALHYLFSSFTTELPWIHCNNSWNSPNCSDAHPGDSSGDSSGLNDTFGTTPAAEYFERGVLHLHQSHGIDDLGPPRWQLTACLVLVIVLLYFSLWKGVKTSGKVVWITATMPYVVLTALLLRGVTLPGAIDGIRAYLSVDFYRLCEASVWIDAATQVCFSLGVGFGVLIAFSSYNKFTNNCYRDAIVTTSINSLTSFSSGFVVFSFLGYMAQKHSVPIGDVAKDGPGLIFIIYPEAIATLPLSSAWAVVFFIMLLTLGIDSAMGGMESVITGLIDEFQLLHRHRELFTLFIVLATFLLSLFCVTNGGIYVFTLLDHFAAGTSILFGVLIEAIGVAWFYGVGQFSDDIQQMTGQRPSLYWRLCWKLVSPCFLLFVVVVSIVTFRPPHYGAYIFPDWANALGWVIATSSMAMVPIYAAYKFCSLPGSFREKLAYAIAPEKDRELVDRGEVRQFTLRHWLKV", "assay": "PDSP binding, secondary screen", "description": "(§1) This was achieved through the identification of potential pharmacological targets of compound 22 using the Psychoactive Drug Screening Program (PDSP) at University of North Carolina-Chapel-Hill. PDSP provides a platform for screening novel psychoactive compounds on human proteins expressed in the central nervous system in order to identify their biological target(s) ([Besnard et al., 2012]). Binding studies were done on 47 targets at a single dose of compound 22 (10 μM; Supplementary Table S1). This primary screen yielded a total of 5 hits for compound 22 (Table 2). These hits were the serotonin, dopamine, and norepinephrine transporters, as well as the sigma 1 and sigma 2 receptors."}, "Serotonin Transporter": {"target": "Serotonin Transporter (Homo sapiens, UniProt P31645)", "sequence (P31645 whole entry)": "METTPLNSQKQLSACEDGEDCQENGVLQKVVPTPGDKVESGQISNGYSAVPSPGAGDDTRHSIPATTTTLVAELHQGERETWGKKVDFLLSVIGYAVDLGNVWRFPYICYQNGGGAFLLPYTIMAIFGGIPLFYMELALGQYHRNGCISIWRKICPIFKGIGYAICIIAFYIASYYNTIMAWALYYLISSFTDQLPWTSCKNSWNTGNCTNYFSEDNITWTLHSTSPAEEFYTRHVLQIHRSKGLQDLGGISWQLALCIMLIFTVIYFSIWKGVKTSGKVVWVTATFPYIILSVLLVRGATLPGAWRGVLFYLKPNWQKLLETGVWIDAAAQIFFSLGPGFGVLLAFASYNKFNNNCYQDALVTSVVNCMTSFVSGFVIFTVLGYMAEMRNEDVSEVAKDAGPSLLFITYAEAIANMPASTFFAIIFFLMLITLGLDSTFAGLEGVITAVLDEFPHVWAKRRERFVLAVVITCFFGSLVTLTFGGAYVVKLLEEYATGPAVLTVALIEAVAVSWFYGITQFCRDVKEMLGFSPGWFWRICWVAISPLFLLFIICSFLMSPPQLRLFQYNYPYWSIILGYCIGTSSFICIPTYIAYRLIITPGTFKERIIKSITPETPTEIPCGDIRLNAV", "assay": "PDSP binding, secondary screen", "description": "as §1"}, "[1]": {"target": "Norepinephrine Transporter (Homo sapiens, UniProt P23975)", "sequence (P23975 whole entry)": "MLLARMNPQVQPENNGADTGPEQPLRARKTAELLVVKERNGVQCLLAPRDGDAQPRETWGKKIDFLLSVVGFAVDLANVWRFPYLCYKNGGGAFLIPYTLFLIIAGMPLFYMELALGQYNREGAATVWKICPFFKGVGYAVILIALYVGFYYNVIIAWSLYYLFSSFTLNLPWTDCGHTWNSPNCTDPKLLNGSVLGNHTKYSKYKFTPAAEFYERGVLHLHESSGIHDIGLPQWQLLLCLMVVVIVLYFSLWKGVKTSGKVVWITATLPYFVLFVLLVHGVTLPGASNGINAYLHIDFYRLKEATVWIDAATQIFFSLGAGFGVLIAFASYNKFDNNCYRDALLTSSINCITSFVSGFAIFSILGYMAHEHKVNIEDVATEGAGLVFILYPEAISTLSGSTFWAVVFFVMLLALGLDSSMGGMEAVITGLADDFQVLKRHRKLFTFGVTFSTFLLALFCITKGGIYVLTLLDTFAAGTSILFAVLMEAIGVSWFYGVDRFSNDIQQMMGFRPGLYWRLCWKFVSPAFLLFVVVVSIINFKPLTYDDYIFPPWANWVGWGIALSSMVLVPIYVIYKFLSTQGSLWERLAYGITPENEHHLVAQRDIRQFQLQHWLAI", "assay": "PDSP binding, secondary screen", "description": "as §1"}, "Beta1": {"target": "T1, Beta1 (Homo sapiens, UniProt P08588)", "T1 construct": "purchased NIMH Psychoactive Drug Screening Program (PDSP), University of North Carolina-Chapel Hill", "T1 sequence (P08588 whole entry)": "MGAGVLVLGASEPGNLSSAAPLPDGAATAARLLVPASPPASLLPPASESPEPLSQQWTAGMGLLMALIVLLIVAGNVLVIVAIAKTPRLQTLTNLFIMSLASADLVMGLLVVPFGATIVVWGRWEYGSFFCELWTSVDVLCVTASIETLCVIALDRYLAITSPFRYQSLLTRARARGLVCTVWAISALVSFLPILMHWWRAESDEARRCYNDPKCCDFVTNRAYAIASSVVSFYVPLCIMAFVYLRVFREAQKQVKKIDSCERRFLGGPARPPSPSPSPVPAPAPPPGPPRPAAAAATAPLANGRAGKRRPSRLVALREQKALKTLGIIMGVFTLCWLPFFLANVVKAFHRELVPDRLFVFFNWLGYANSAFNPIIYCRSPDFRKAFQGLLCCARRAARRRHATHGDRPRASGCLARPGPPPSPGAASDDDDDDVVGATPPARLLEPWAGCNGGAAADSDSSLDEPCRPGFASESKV", "assay": "PDSP binding, primary screen", "description": "as §1\n(§2) Supplemental Table 1. Compound 22 binding studies from PDSP: primary screen for compound 22 and subsequent hits (50% cut-off, hits highlighted in red). The primary screen was performed by PDSP as described previously (Besnard et al., 2012)."}, "H4": {"target": "T2, H4 (Homo sapiens, UniProt Q9H3N8)", "T2 construct": "purchased NIMH Psychoactive Drug Screening Program (PDSP), University of North Carolina-Chapel Hill", "T2 sequence (Q9H3N8 whole entry)": "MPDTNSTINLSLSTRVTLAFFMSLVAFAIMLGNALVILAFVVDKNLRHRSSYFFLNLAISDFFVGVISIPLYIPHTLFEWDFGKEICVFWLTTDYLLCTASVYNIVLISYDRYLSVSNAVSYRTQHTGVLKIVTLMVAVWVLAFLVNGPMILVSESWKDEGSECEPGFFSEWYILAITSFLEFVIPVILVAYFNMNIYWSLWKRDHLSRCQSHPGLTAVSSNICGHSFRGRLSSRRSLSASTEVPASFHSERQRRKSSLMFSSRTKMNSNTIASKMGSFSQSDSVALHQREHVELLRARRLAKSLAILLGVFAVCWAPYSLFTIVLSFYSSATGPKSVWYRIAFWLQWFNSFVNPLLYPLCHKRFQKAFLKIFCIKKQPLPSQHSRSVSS", "assay": "PDSP binding, primary screen", "description": "as §1, §2"}, "5-ht5a": {"target": "T3, 5-ht5a (Homo sapiens, UniProt P47898)", "T3 construct": "purchased NIMH Psychoactive Drug Screening Program (PDSP), University of North Carolina-Chapel Hill", "T3 sequence (P47898 whole entry)": "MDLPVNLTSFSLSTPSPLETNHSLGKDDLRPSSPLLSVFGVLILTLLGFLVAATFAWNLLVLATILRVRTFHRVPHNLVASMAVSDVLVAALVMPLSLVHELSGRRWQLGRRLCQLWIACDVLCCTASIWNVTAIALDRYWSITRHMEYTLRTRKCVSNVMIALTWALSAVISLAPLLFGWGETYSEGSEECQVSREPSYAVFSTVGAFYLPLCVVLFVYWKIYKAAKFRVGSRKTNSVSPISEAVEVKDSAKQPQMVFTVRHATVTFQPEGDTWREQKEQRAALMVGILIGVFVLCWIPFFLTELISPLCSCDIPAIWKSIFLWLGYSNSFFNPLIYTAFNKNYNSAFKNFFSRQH", "assay": "PDSP binding, primary screen", "description": "as §1, §2"}, "D2": {"target": "T4, D2 (Homo sapiens, UniProt P14416)", "T4 construct": "purchased NIMH Psychoactive Drug Screening Program (PDSP), University of North Carolina-Chapel Hill", "T4 sequence (P14416 whole entry)": "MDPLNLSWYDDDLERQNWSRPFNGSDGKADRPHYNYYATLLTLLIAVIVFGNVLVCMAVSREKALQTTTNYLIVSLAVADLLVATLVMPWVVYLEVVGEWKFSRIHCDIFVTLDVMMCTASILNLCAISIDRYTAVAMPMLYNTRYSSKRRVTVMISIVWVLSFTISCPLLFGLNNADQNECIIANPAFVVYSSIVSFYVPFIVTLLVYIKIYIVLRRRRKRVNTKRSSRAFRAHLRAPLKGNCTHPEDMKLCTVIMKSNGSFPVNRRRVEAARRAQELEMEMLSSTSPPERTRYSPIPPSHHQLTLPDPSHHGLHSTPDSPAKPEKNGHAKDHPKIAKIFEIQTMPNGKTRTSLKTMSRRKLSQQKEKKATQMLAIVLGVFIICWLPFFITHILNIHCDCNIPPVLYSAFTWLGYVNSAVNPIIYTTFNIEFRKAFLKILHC", "assay": "PDSP binding, primary screen", "description": "as §1, §2"}, "5-HT6": {"target": "T5, 5-HT6 (Homo sapiens, UniProt P50406)", "T5 construct": "purchased NIMH Psychoactive Drug Screening Program (PDSP), University of North Carolina-Chapel Hill", "T5 sequence (P50406 whole entry)": "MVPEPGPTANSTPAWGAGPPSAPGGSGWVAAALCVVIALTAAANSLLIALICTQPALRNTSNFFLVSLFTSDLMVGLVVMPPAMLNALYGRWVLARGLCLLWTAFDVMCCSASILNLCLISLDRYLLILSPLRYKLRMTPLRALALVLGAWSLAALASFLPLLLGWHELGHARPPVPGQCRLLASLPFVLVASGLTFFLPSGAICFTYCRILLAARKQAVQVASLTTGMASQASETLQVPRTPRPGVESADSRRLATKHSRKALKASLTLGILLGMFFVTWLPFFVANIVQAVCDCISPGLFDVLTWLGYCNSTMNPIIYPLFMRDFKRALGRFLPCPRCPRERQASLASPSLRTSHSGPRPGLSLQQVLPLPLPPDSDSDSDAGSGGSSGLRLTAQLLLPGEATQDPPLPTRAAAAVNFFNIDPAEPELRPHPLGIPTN", "assay": "PDSP binding, primary screen", "description": "as §1, §2"}, "[2]": {"tested_on": "WT littermates (C57BL/6J × 129S2/Sv)", "assay": "Basal locomotor activity in WT littermates of TAAR1-KO mice", "format": "in vivo", "conditions": "5 and 25 mg/kg alone, 60 min", "description": "The Taarl^-/- (TAAR1-KO) mice were obtained from Lundbeck ([Wolinsky et al., 2007]). All wild type (WT) and TAAR1-KO mice used for experiments were generated from TAAR1-KO heterozygous mice in a C57BL/6J x 129S1/Sv mixed background. Experimentally naïve mice, of at least 12 weeks of age, were used for all behavioral experiments. The mice were randomly assigned to treatment or control groups, balanced by sex and weight. Locomotor activity was assessed using the automated locomotor analysis monitors (Omnitech Electronics, Columbus, OH, United States). The apparatus included four open field monitors. Each Open Field monitor consisted of sets of 16 light beams arrayed in the horizontal X and Y axes. The hardware detected beams broken by the animal, which allowed the software to determine the location of the mouse in the cage. Total distance covered by mice was used to characterize locomotor activity of the animals. The monitors were divided into four compartments (20 cm × 20 cm). Animals were tested individually for defined periods with 5-min intervals. The mice were first weighed and then placed into the apparatus, allowing for 30 min habituation. […] The locomotor activity was then measured for additional 1 h. […] The locomotor activity was assessed for 60 min following the injection. […]"}, "C57BL/6J mice": {"tested_on": "C57BL/6J mice", "assay": "Stereotypic counts, co-injection with amphetamine, C57BL/6J mice", "format": "in vivo", "conditions": "5 and 20 mg/kg co-administered with amphetamine 2 mg/kg; sum over 60 min", "description": "Experimentally naïve mice, of at least 12 weeks of age, were used for all behavioral experiments. The mice were randomly assigned to treatment or control groups, balanced by sex and weight. Locomotor activity was assessed using the automated locomotor analysis monitors (Omnitech Electronics, Columbus, OH, United States). The apparatus included four open field monitors. Each Open Field monitor consisted of sets of 16 light beams arrayed in the horizontal X and Y axes. The hardware detected beams broken by the animal, which allowed the software to determine the location of the mouse in the cage. Total distance covered by mice was used to characterize locomotor activity of the animals. The monitors were divided into four compartments (20 cm × 20 cm). Animals were tested individually for defined periods with 5-min intervals. The mice were first weighed and then placed into the apparatus, allowing for 30 min habituation. […] The locomotor activity was then measured for additional 1 h. […]\n(A) Wild type C57BL/6J mice were first habituated for 30 min followed by the co-injection of amphetamine (2 mg/kg) and saline or compound 22 at doses 5, 15, 20, 25, 30, and 50 mg/kg. The locomotor activity was assessed for 60 min after the injection. Sum of stereotypic counts assessed over 60 min after the injection of amphetamine and compound 22. […] The locomotor activity was assessed for 60 min after the injection. […]"}}}
{"smiles": "Clc1ccc(CNCc2ccc(Cn3cncn3)cc2)c(Cl)c1", "note": "[compound 22]", "values": [{"measurement": "Ki", "setting": "Dopamine Transporter", "value": 1050, "unit": "nM"}, {"measurement": "Ki", "setting": "Serotonin Transporter", "value": 1800, "unit": "nM"}, {"measurement": "Ki", "setting": "[1]", "value": 1900, "unit": "nM"}, {"measurement": "inhibition at 10 µM", "setting": "Beta1", "value": -3.5, "unit": "%"}, {"measurement": "inhibition at 10 µM", "setting": "H4", "value": -9.8, "unit": "%"}, {"measurement": "inhibition at 10 µM", "setting": "5-ht5a", "value": 15.3, "unit": "%"}, {"measurement": "inhibition at 10 µM", "setting": "D2", "value": 36.7, "unit": "%"}, {"measurement": "inhibition at 10 µM", "setting": "5-HT6", "value": 4.6, "unit": "%"}, {"measurement": "effect on basal locomotor activity", "setting": "[2]", "value": "did not significantly alter"}, {"measurement": "stereotypic counts", "setting": "C57BL/6J mice", "value": "statistically significant increase in stereotypic counts"}]}
